Reference: patent publication US20030125287A1, “Antisense oligonucleotides and methods to induce tumor cell death” (Hybridon, Inc., priority 2001, published 2003)
Entries after “also recorded” stand apart in the source; their conditions may differ. Oligonucleotides are written 5' to 3', each unit as a sugar letter and its base; * is a phosphorothioate linkage, no mark a phosphodiester; rarer units and linkages stand in square brackets, end groups in braces. Plain capitals give the bases only. d = 2'-deoxy (DNA)

What was measured:
caspase-3 [1] = assay: Caspase-3 activity assay in MSN cells; assay type: cell-based, human
Protocol: MSN cells were treated with lipofectin, 400 nM survivin antisense oligonucleotide 903, 904, or mismatched oligonucleotide 1132, for a 48 hour period. Cell pellets were washed twice in cold PBS and re-suspended in ice-cold hypotonic cell lysis buffer (25 mM HEPES, pH 7.5, 5 mM MgCl2, 5 mM EDTA, 5 mM DTT, 2 mM PMSF, 10 μg/ml pepstatin A, 10 μg/ml leupeptin). Re-suspended pellets were incubated on ice for 20 min, followed by brief sonication for two seconds. Lysates were centrifuged at 14,000 rpm for 20 minutes at 4° C. The supernatant was retained and the protein concentration analyzed by the Bio-Rad protein assay described above.
Supernatants were assayed in triplicate, with and without the caspase-3 inhibitor, Ac-DEVD-CHO, using black opaque, 96 well, flat bottom plates (Greiner Laboratories, USA Scientific Inc., Orlando, Fla.). 50-100 μg of the supernatant was incubated in caspase-3 assay buffer (100 mM HEPES, pH 7.5, 10% sucrose, 0.1% CHAPS and 10 mM DTT) with either 2 μl of DMSO or 2 μl of 2.5 mM Ac-DEVD-CHO (Pharmingen, San Diego, Calif.) so that the final concentration of the inhibitor was 50 μM in a final volume of 100 μl. It was then incubated at 30° C. for 30 minutes. Subsequently, 2 μl of the caspase-3 substrate 2.5 mM Ac-DEVD-AMC (Pharmingen, San Diego, Calif.) (final concentration 50 μM)) was added to each well. Plates were incubated at 30° ° C. for 60 minutes in the dark.
Fluorescence of the reaction was measured using a SPECTRAmax GEMINI spectrofluorometer using SOFTmax® PRO software (Molecular Devices, Sunnyvale, Calif.) at an excitation wavelength of 355 nm and an emission wavelength of 460 nm with a cutoff filter of 455 nm. The data is presented as the ratio of the mean relative fluorescence units/mg protein±SD.

survivin [2] = assay: Western blot of survivin protein in MSN cells treated with cell cycle checkpoint blockers; assay type: cell-based, human; details: for survivin expression / survivin protein abundance after cell cycle blocker: result in words, cell line not given; for fold increase of survivin protein relative to DMSO or EtOH: MSN cells, vinblastine 250 nM, nocadozole 10 μM, taxotere 1 μM
Protocol: Total protein was isolated from MSN cells either untreated or treated with vinblastine (250 nM), nocadozole (10 μM), or taxotere (1 μM). DMSO and ethanol (EtOH) were added as carriers. Each lane had 75 μg of total protein. The blots were cut at 32.9 kD, and the bottom blots were incubated with a survivin polyclonal antibody (1:500), while the top blot was incubated with a β-tubulin mAb (1:1000). In each of the treatments, the fold increase of survivin protein relative to DMSO or EtOH was vinblastine, 1.9; nocadozole, 2.6; taxotere, 1.7.
(§1) To block cells in G2/Ml MSN cells or TC620 cells were treated with 10 μM nocodazole, 1 μM taxotere, or 250 nM vinblastine for 16 hours, at which time total protein homogenates were isolated and proteins were examined following sodium dodecyl sulfate-polyacrylamide gel electrophoresis (SDS-PAGE) and immunoblotting.
(§2) Ten micrograms of the fusion protein was incubated with the survivin antibody (1:500) at 4° C. for 2 hours to overnight prior to immunoblotting. […] Blots were cut at 32.9 kD, and the bottom part of the blots were incubated with the survivin antibody overnight at 4° C. and visualized by enhanced chemiluminescence (Enhanced Chemiluminescence, Amersham, Arlington Heights, Ill.) as previously described (Sharma et al. Cell. Motil. Cytoskeleton 27:234-247).

caspase-3 [3] = assay: Caspase-3 activity assay in MSN cells; assay type: cell-based, human; remark: listed apart in the source
XIAP = details: MSN cells; 400 nM; 48 hours (FIG. 10A)
Protocol: MSN cells were treated with lipofectin or 400 nM survivin antisense oligonucleotides 900, 901, 903, 904, 905 and 906. Total protein was isolated 48 hours after treatment, and 100 μg of protein was loaded per lane. The blot was incubated with a monoclonal antibody against XIAP (1:1000; IgG1). Visualization was by enhanced chemiluminescence (ECL). […] The experiment was performed twice.
Total protein homogenates were prepared according to a previously described procedure (Albala et al. (1995) J. Neurochem. 64:2480-2490). Protein content was measured using the Bio-Rad detection system (Bio-Rad Laboratories, Hercules, Calif.). Equal amounts of protein were analyzed by SDS-PAGE on 10% gels (Laemmli (1970) Nature 227:680-685). The resolved polypeptides were electrophoretically transferred to nitrocellulose (Towbin et al. (1979) Proc. Natl. Acad. Sci. USA 76:4350-4354).
Survivin polyclonal antibody was purchased from R & D Systems, Inc. (Minneapolis, Minn.). […] A generic β-tubulin monoclonal antibody (TUB 2.1) was purchased from SIGMA (St. Louis, Mo.). The XIAP mAb was purchased from StressGen Biotechnologies Corp. (Victoria, Canada). The poly-ADP ribosyl polymerase (PARP) mAb was purchased from PharMingen/Transduction Laboratories (San Diego, Calif.).

PARP = PARP cleavage immunoblot in MSN cells; assay type: cell-based, human
Protocol: To determine whether MSN cell death by survivin antisense oligonucleotides was mediated by caspase-3 activation, studies were conducted to examine whether PARP was cleaved following survivin antisense treatment. […] Since no PARP cleavage was detected, further tests were conducted to determine whether survivin antisense-treated cells have any active caspase-3.

survivin [4] = assay: Western blot of survivin protein in antisense oligonucleotide-treated MSN cells; assay type: cell-based, human
Protocol: Six survivin (900-906) antisense oligonucleotides were administered at 400 nM to MSN cells in the presence of lipofectin for 48 hours. Each lane has 100 μg of protein. The blots were cut at 32.9 kD and the bottom incubated with the survivin polyclonal antibody (1:500), while the top was incubated with β-tubulin.
Since survivin antisense oligonucleotide 903 decreased survivin protein levels by 76%, the dose dependency of 903 on survivin protein levels was further studied. As expected, mismatched oligonucleotides had no effect on the relative abundance of survivin. […] In the presence of lipofectin, survivin antisense oligonucleotide 903 was administered to MSN cells for 48 hours at 50 nM to 200 nM. Total protein (100 μg) was loaded/lane.
Survivin antisense oligonucleotide 904 decreased survivin protein levels by 46% and 60% while survivin levels were unchanged in cells incubated with the mismatched oligonucleotide 1132. MSN cells were treated with lipofectin, survivin antisense oligonucleotide 904 or 908 at 400 nM and 600 nM, or mismatched oligonucleotide 1132 at 400 nM concentrations. Total protein (100 μg) was separated by SDS polyacrylamide gel electrophoresis and transferred to a nitrocellulose support. The blots were cut at 32.9 kD and the bottom blots incubated with the survivin polyclonal antibody (1:500), while the top blots were incubated with tubulin.
The antisense oligonucleotides were synthesized on solid support with an automated DNA synthesizer using β-cyanoethylphosphoramidite chemistry. In order to prevent rapid degradation of the antisense oligonucleotides by cellular nucleases, oxidation was carried out with Becauge sulfurizing agent to obtain phosphorothioate backbone modified oligonucleotides. After their synthesis, the oligonucleotides were released from the solid support, deprotected, purified by reverse-phase HPLC, desalted, filtered and lyophilized. The purity and sequence integrity of oligonucleotides was ascertained by capillary gel electrophoresis and MALDI-TOF mass spectral analysis and the concentrations measured at […]. Cells were grown in 100 mm dishes and oligonucleotide treatment was performed on subconfluent cultures in the presence of Lipofectin (GIBCO) according to the manufacturer. Forty-eight hours following treatment, total protein homogenates were isolated.
as §2

MSN cells = assay: Flow cytometry of MSN cells treated with G2/M blockers; assay type: cell-based, human
Protocol: Next, the regulation of survivin expression at G2/M cell cycle checkpoints was evaluated. First, survivin expression was increased following treatment with the G2/M checkpoint blockers, vinblastine, nocodazole, and taxotere.

survivin [5] = assay: Western blot of survivin protein in nocodazole-treated TC620 cells; assay type: cell-based, human; details: nocodazole 10 μM, 24 h
Protocol: The Western blot as represented in FIG. 2B was prepared by isolating total protein from nocadozole-treated (10 μM, 24 h) and untreated TC620 cells, MSN cells, and Jurkat cells. Each lane had 75 μg of total protein.
as §1

[6] = 400 nM, lipofectin, 48 hours (FIG. 3A)

Ac-DEVD-CHO [reference compound] was tested, and the “effect of caspase-3 inhibitor on caspase-3 activation in the assay” value (caspase-3 [1]; added to MSN cell supernatants, final concentration 50 μM) was “eliminated caspase-3 activation”.

With `CN1CC[C@H](c2c(O)cc(O)c3c(=O)cc(-c4ccccc4Cl)oc23)[C@H](O)C1` [flavopiridol] the “survivin expression / survivin protein abundance after cell cycle blocker” value (survivin [2]) was “did not alter survivin protein abundance”.

`CN[C@@H]1C[C@H]2O[C@@](C)([C@@H]1OC)n1c3ccccc3c3c4c(c5c6ccccc6n2c5c31)C(=O)NC4` [Staurosporine] was tested, and the “caspase-3 activity, Relative units/mg protein +/− SD” value (caspase-3 [3]; 1 μM, 6 hours, triplicate) was 264,281 ± 8130 Relative units/mg protein and the “fold increase in caspase-3 activity” value (caspase-3 [3]; staurosporine treatment) was “over 7 fold”.

“d(CCCTAGCTCACACTCTCATT) (antisense dC*dC*dC*dT*dA*dG*dC*dT*dC*dA*dC*dA*dC*dT*dC*dT*dC*dA*dT*dT) [Oligo 903, 20-mer phosphorothioate survivin antisense oligonucleotide, complementary to survivin mRNA 4385-4404]” was tested, and the “fold change of XIAP protein over β-tubulin relative to lipofectin” value (XIAP) was 5.2 fold, the “caspase-3 activity” value (caspase-3 [1]; MSN cells, 400 nM, 48 hours) was “no significant increase in caspase-3 activity; also recorded: did not activate caspase-3” and the “caspase-3 activity, Relative units/mg protein +/− SD” value (caspase-3 [1]; MSN cells, 400 nM, 48 hours, triplicate) was 27,850 ± 2311 Relative units/mg protein. The “PARP cleavage, words” value (PARP) was “did not activate caspase-3 or cleave the caspase-3 substrate, PARP”, the “percentage of survivin protein over β-tubulin relative to lipofectin” value (survivin [4]; 50 nM, 48 hours (FIG. 3B)) was 83.9% and the “percentage of survivin protein over β-tubulin relative to lipofectin” value (survivin [4]; 75 nM, 48 hours (FIG. 3B)) was 62.6%. For the same molecule, the “percentage of survivin protein over β-tubulin relative to lipofectin” value (survivin [4]; 100 nM, 48 hours (FIG. 3B)) was 95.6%, the “percentage of survivin protein over β-tubulin relative to lipofectin” value (survivin [4]; 200 nM, 48 hours (FIG. 3B)) was 48.5% and the reduction in survivin (survivin [4]; 200 nM, 48 hours (FIG. 3B)) was 51%. The “decrease in survivin protein levels relative to lipofectin-treated control, normalized to β-tubulin” value (survivin [4]; 400 nM, 48 hours (FIG. 3A)) was 76%, the “percentage of survivin protein over β-tubulin relative to lipofectin” value (survivin [4]; [6]) was 24.3% and the “effect on survivin protein levels” value (survivin [4]; lipofectin, 48 hours) was “concentration-dependent decrease in survivin protein levels”.

For `CC(=O)O[C@@]12CO[C@@H]1C[C@H](O)[C@@]1(C)C(=O)[C@H](O)C3=C(C)[C@@H](OC(=O)[C@H](O)[C@@H](NC(=O)OC(C)(C)C)c4ccccc4)C[C@@](O)([C@@H](OC(=O)c4ccccc4)[C@H]21)C3(C)C` [taxotere], the “fold increase of survivin protein relative to DMSO or EtOH” value (survivin [2]) was 1.7 fold, the “survivin expression / survivin protein abundance after cell cycle blocker” value (survivin [2]) was “increased” and the “cell cycle phase by flow cytometry” value (MSN cells) was “blocked at the G2/M cell cycle phase”.

In the case of “d(GAGCCTTCCTCTTCATGTCC) (antisense dG*dA*dG*dC*dC*dT*dT*dC*dC*dT*dC*dT*dT*dC*dA*dT*dG*dT*dC*dC) [Oligo 905]”, the “fold change of XIAP protein over β-tubulin relative to lipofectin” value (XIAP) is reported as 7.6 fold.

With “d(CAGTGGATGAAGGCAGCCTC) (antisense dC*dA*dG*dT*dG*dG*dA*dT*dG*dA*dA*dG*dG*dC*dA*dG*dC*dC*dT*dC) [Oligo 901, 20-mer phosphorothioate survivin antisense oligonucleotide, complementary to survivin mRNA 3180-3199]” the “fold change of XIAP protein over β-tubulin relative to lipofectin” value (XIAP) was 3.9 fold and the “percentage of survivin protein over β-tubulin relative to lipofectin” value (survivin [4]; [6]) was 38.3%.

“d(GCCAGTTCTTGAATGTAGAG) (antisense dG*dC*dC*dA*dG*dT*dT*dC*dT*dT*dG*dA*dA*dT*dG*dT*dA*dG*dA*dG) [Oligo 900, 20-mer phosphorothioate survivin antisense oligonucleotide, complementary to survivin mRNA 2867-2886]” was tested, and the “fold change of XIAP protein over β-tubulin relative to lipofectin” value (XIAP) was 2.3 fold and the “percentage of survivin protein over β-tubulin relative to lipofectin” value (survivin [4]; [6]) was 77.7%.

In the case of `CC[C@]1(O)C[C@@H]2CN(CCc3c([nH]c4ccccc34)[C@@](C(=O)OC)(c3cc4c(cc3OC)N(C)[C@H]3[C@@](O)(C(=O)OC)[C@H](OC(C)=O)[C@]5(CC)C=CCN6CC[C@]43[C@@H]65)C2)C1` [vinblastine], the “fold increase of survivin protein relative to DMSO or EtOH” value (survivin [2]) is reported as 1.9 fold, the “survivin expression / survivin protein abundance after cell cycle blocker” value (survivin [2]) is reported as “increased” and the “cell cycle phase by flow cytometry” value (MSN cells) is reported as “blocked at the G2/M cell cycle phase”.

For `COC(=O)Nc1nc2ccc(C(=O)c3cccs3)cc2[nH]1` [nocodazole], the “fold increase in survivin protein” value (survivin [5]) was 1.6 fold, the “fold increase of survivin protein relative to DMSO or EtOH” value (survivin [2]) was 2.6 fold and the “survivin expression / survivin protein abundance after cell cycle blocker” value (survivin [2]) was “increased”.
